EP0908457B1, “3-(1,2-benzisothiazol- and isoxazol-5-Y1)-2,4(1H,3H)-pyrimidinedione or thione and 3-(1,2-benzisothiazol- and isoxazol-5-y1)-4(3H)-pyrimidinone or thione herbicidal agents” (BASF AKTIENGESELLSCHAFT, priority 1997, dated 1999)

How the values were obtained:
[1] = system: Cyperus serotinus, Rottb.; test: Preemergence weed control under flooded paddy conditions, CYPSE (Flatsedge); type: in vivo; conditions: preemergence, rated three to four weeks after treatment
[2] = system: Monochoria vaginalis, Presl.; test: Preemergence weed control under flooded paddy conditions, MOOVA (Monochoria); type: in vivo; conditions: preemergence, flooded paddy, rated three to four weeks after treatment
[3] = system: Oryza sativa, (L.) Tebonnet; test: Rice tolerance to post-transplant applications under flooded paddy conditions (Example 187), ORYSAT (Rice, Tebonnet); conditions: rated three to four weeks after treatment
Sagittaria pygmaea, L. = test: Preemergence weed control under flooded paddy conditions, SAGPY (Arrowhead (Pygmaea)); type: in vivo; conditions: preemergence, flooded paddy, rated three to four weeks after treatment
[4] = system: Echinochloa oryzoides (Ard.) Fritsch.; test: Preemergence weed control under flooded paddy conditions, ECHORC (Watergrass (Calif.)); type: in vivo; conditions: preemergence, flooded paddy, rated three to four weeks after treatment
Cyperus iria = test: Preemergence weed control under flooded paddy conditions, CYPIR (Rice Flatsedge); type: in vivo; conditions: preemergence, flooded paddy, rated three to four weeks after treatment

For `COC(=O)C(C)(C)c1nsc2ccc(-n3c(=O)cc(C(F)(F)F)n(C)c3=O)cc12` [Example 490, 1,2-Benzisothiazole-3-acetic acid, 5-[3,6-dihydro-3-methyl-2,6-dioxo-4-(trifluoromethyl)-1(2H)-pyrimidinyl]-alpha,alpha-dimethyl-, methyl ester], the CYPSE herbicidal rating ([1]; 0.0320 kg/ha) was 9.0, the CYPSE herbicidal rating ([1]; 0.0620 kg/ha) was 9.0 and the CYPSE herbicidal rating ([1]; 0.1250 kg/ha) was 9.0. The CYPSE herbicidal rating ([1]; 0.2500 kg/ha) was 9.0, the MOOVA herbicidal rating ([2]; 0.0320 kg/ha) was 9.0 and the MOOVA herbicidal rating ([2]; 0.0620 kg/ha) was 9.0. The MOOVA herbicidal rating ([2]; 0.1250 kg/ha) was 9.0, the MOOVA herbicidal rating ([2]; 0.2500 kg/ha) was 9.0 and the “ORYSAT herbicidal rating (rice tolerance)” value (“ORYSAT herbicidal rating” below) ([3]; 0.0320 kg/ha) was 7.5. The “ORYSAT herbicidal rating” value ([3]; 0.0620 kg/ha) was 9.0, the “ORYSAT herbicidal rating” value ([3]; 0.1250 kg/ha) was 8.5 and the “ORYSAT herbicidal rating” value ([3]; 0.2500 kg/ha) was 9.0. It also gave an SAGPY herbicidal rating (Sagittaria pygmaea, L.; 0.0320 kg/ha) of 6.0, an SAGPY herbicidal rating (Sagittaria pygmaea, L.; 0.0620 kg/ha) of 9.0 and an SAGPY herbicidal rating (Sagittaria pygmaea, L.; 0.1250 kg/ha) of 9.0. For the same molecule, the SAGPY herbicidal rating (Sagittaria pygmaea, L.; 0.2500 kg/ha) was 9.0, the ECHORC herbicidal rating ([4]; 0.0320 kg/ha) was 8.0 and the ECHORC herbicidal rating ([4]; 0.0620 kg/ha) was 9.0. It also gave an ECHORC herbicidal rating ([4]; 0.1250 kg/ha) of 9.0, an ECHORC herbicidal rating ([4]; 0.2500 kg/ha) of 9.0 and a CYPIR herbicidal rating (Cyperus iria; 0.0320 kg/ha) of 9.0. For the same molecule, the CYPIR herbicidal rating (Cyperus iria; 0.0620 kg/ha) was 9.0, the CYPIR herbicidal rating (Cyperus iria; 0.1250 kg/ha) was 9.0 and the CYPIR herbicidal rating (Cyperus iria; 0.2500 kg/ha) was 9.0.
`Cc1ccc(OC(C)(C)C(=O)O)c(-c2nsc3ccc(-n4c(=O)cc(C(F)(F)F)n(C)c4=O)cc23)c1` [Example 515, Propionic acid, 2-{{2-{5-[3,6-dihydro-3-methyl-2,6-dioxo-4-(trifluoromethyl)-1(2H)-pyrimidinyl]-1,2-benzisothiazol-3-yl}-p-tolyl}oxy}-2-methyl-] gave a CYPSE herbicidal rating ([1]; 0.0320 kg/ha) of 0.0, a CYPSE herbicidal rating ([1]; 0.0620 kg/ha) of 0.0 and a CYPSE herbicidal rating ([1]; 0.1250 kg/ha) of 0.0. The CYPSE herbicidal rating ([1]; 0.2500 kg/ha) was 0.0, the MOOVA herbicidal rating ([2]; 0.0320 kg/ha) was 9.0 and the MOOVA herbicidal rating ([2]; 0.0620 kg/ha) was 9.0. For the same molecule, the MOOVA herbicidal rating ([2]; 0.1250 kg/ha) was 9.0, the MOOVA herbicidal rating ([2]; 0.2500 kg/ha) was 9.0 and the “ORYSAT herbicidal rating” value ([3]; 0.0320 kg/ha) was 0.0. For the same molecule, the “ORYSAT herbicidal rating” value ([3]; 0.0620 kg/ha) was 2.0, the “ORYSAT herbicidal rating” value ([3]; 0.1250 kg/ha) was 4.0 and the “ORYSAT herbicidal rating” value ([3]; 0.2500 kg/ha) was 6.0. It also gave an SAGPY herbicidal rating (Sagittaria pygmaea, L.; 0.0320 kg/ha) of 0.0, an SAGPY herbicidal rating (Sagittaria pygmaea, L.; 0.0620 kg/ha) of 0.0 and an SAGPY herbicidal rating (Sagittaria pygmaea, L.; 0.1250 kg/ha) of 0.0. It also gave an SAGPY herbicidal rating (Sagittaria pygmaea, L.; 0.2500 kg/ha) of 0.0, an ECHORC herbicidal rating ([4]; 0.0320 kg/ha) of 2.0 and an ECHORC herbicidal rating ([4]; 0.0620 kg/ha) of 6.0. It also gave an ECHORC herbicidal rating ([4]; 0.1250 kg/ha) of 8.0, an ECHORC herbicidal rating ([4]; 0.2500 kg/ha) of 9.0 and a CYPIR herbicidal rating (Cyperus iria; 0.0320 kg/ha) of 0.0. For the same molecule, the CYPIR herbicidal rating (Cyperus iria; 0.0620 kg/ha) was 2.0, the CYPIR herbicidal rating (Cyperus iria; 0.1250 kg/ha) was 4.0 and the CYPIR herbicidal rating (Cyperus iria; 0.2500 kg/ha) was 7.0.
In the case of `COC(=O)C(C)Oc1c(-c2nsc3ccc(-n4c(=O)cc(C(F)(F)F)n(C)c4=O)cc23)ccc(C)c1C` (stereo not drawn) [Example 275, Propionic acid, 2-{{6-{5-[3,6-dihydro-3-methyl-2,6-dioxo-4-(trifluoromethyl)-1(2H)-pyrimidinyl]-1,2-benzisothiazol-3-yl}-2,3-xylyl}oxy}-, methyl ester], the “CYPSE herbicidal effect rating” value ([1]; Rate 0.0320 kg/ha) is reported as 9.0, the “CYPSE herbicidal effect rating” value ([1]; Rate 0.0620 kg/ha) is reported as 9.0 and the “CYPSE herbicidal effect rating” value ([1]; Rate 0.1250 kg/ha) is reported as 9.0. The “CYPSE herbicidal effect rating” value ([1]; Rate 0.2500 kg/ha) was 9.0, the “CYPSE herbicidal effect rating” value ([1]; Rate 0.5000 kg/ha) was 0.0 and the “MOOVA herbicidal effect rating” value ([2]; Rate 0.0320 kg/ha) was 6.0. The “MOOVA herbicidal effect rating” value ([2]; Rate 0.0620 kg/ha) was 9.0, the “MOOVA herbicidal effect rating” value ([2]; Rate 0.1250 kg/ha) was 9.0 and the “MOOVA herbicidal effect rating” value ([2]; Rate 0.2500 kg/ha) was 9.0. For the same molecule, the “MOOVA herbicidal effect rating” value ([2]; Rate 0.5000 kg/ha) was 9.0, the “ORYSAT herbicidal effect rating” value ([3]; Rate 0.0320 kg/ha) was 0.0 and the “ORYSAT herbicidal effect rating” value ([3]; Rate 0.0620 kg/ha) was 0.0. The “ORYSAT herbicidal effect rating” value ([3]; Rate 0.1250 kg/ha) was 3.0, the “ORYSAT herbicidal effect rating” value ([3]; Rate 0.2500 kg/ha) was 4.0 and the “ORYSAT herbicidal effect rating” value ([3]; Rate 0.5000 kg/ha) was 5.0. The “SAGPY herbicidal effect rating” value (Sagittaria pygmaea, L.; Rate 0.0320 kg/ha) was 0.0, the “SAGPY herbicidal effect rating” value (Sagittaria pygmaea, L.; Rate 0.0620 kg/ha) was 0.0 and the “SAGPY herbicidal effect rating” value (Sagittaria pygmaea, L.; Rate 0.1250 kg/ha) was 3.0. For the same molecule, the “SAGPY herbicidal effect rating” value (Sagittaria pygmaea, L.; Rate 0.2500 kg/ha) was 9.0, the “SAGPY herbicidal effect rating” value (Sagittaria pygmaea, L.; Rate 0.5000 kg/ha) was 0.0 and the “ECHORC herbicidal effect rating” value ([4]; Rate 0.0320 kg/ha) was 3.7. The “ECHORC herbicidal effect rating” value ([4]; Rate 0.0620 kg/ha) was 3.9, the “ECHORC herbicidal effect rating” value ([4]; Rate 0.1250 kg/ha) was 4.1 and the “ECHORC herbicidal effect rating” value ([4]; Rate 0.2500 kg/ha) was 9.0. The “ECHORC herbicidal effect rating” value ([4]; Rate 0.5000 kg/ha) was 7.0, the “CYPIR herbicidal effect rating” value (Cyperus iria; Rate 0.0320 kg/ha) was 0.0 and the “CYPIR herbicidal effect rating” value (Cyperus iria; Rate 0.0620 kg/ha) was 4.0. The “CYPIR herbicidal effect rating” value (Cyperus iria; Rate 0.1250 kg/ha) was 6.0, the “CYPIR herbicidal effect rating” value (Cyperus iria; Rate 0.2500 kg/ha) was 7.0 and the “CYPIR herbicidal effect rating” value (Cyperus iria; Rate 0.5000 kg/ha) was 0.0.
